Measured values: article PMC4685510, “A Cell Biologist’s Field Guide to Aurora Kinase Inhibitors” (Frontiers in Oncology, 2015)

Experiments:
Experiment in all cases: biochemical
Format in all cases: biochemical
[1] = target: T1, 363 human kinases (including Aurora A/B/C) (Homo sapiens, UniProt Q56UN5); conditions: YSK4/MAP3K19; for remaining activity at 0.1 µM: 100 nM; for remaining activity at 0.1 µM / remaining activity at 0.5 µM: read-out: % Enzyme Activity (relative to DMSO controls)
T1 sequence (Q56UN5 1-1328): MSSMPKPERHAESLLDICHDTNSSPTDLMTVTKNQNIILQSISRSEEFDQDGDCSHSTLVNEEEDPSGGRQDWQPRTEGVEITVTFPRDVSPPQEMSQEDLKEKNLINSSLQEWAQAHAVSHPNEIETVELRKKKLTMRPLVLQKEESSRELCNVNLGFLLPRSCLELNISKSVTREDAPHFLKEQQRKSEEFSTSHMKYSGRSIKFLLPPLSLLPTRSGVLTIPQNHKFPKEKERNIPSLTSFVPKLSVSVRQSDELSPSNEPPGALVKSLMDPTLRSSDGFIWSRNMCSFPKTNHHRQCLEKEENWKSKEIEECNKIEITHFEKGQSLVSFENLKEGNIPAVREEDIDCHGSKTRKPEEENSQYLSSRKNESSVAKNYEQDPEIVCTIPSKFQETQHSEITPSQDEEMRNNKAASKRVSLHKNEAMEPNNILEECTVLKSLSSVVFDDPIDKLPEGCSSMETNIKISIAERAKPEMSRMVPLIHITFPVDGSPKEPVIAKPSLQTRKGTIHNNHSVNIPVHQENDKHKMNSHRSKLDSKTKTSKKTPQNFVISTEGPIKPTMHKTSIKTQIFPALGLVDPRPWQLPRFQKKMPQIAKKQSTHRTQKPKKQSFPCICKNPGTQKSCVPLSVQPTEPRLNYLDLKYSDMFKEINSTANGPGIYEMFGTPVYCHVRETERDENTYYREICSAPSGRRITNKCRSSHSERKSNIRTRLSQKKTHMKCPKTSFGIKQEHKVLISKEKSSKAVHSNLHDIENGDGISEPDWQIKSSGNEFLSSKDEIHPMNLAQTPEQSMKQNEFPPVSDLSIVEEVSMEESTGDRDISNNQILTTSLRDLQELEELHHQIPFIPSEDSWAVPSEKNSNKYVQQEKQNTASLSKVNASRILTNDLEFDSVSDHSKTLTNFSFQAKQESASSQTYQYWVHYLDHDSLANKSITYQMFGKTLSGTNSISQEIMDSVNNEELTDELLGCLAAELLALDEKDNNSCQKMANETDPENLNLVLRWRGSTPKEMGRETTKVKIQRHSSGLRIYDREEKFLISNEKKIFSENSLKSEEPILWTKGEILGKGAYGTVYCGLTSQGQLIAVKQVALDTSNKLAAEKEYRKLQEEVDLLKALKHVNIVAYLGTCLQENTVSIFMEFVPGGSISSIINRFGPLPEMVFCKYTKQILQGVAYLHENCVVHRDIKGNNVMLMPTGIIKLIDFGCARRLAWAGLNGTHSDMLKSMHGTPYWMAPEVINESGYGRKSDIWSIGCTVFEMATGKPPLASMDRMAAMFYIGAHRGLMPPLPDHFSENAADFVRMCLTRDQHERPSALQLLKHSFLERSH
Description: (§1) However, the Aurora A/B selectivity ratios derived from our in vitro and in vivo data can be compared to prioritize inhibitors.

[2] = target: 363 human kinases (including Aurora A/B/C) (Homo sapiens, UniProt Q9Y4K4); conditions: KHS/MAP4K5; for remaining activity at 0.1 µM: 100 nM; for remaining activity at 0.1 µM / remaining activity at 0.5 µM: read-out: % Enzyme Activity (relative to DMSO controls)
Sequence of 363 human kinases (including Aurora A/B/C) (Homo sapiens, UniProt Q9Y4K4) (Q9Y4K4 whole entry): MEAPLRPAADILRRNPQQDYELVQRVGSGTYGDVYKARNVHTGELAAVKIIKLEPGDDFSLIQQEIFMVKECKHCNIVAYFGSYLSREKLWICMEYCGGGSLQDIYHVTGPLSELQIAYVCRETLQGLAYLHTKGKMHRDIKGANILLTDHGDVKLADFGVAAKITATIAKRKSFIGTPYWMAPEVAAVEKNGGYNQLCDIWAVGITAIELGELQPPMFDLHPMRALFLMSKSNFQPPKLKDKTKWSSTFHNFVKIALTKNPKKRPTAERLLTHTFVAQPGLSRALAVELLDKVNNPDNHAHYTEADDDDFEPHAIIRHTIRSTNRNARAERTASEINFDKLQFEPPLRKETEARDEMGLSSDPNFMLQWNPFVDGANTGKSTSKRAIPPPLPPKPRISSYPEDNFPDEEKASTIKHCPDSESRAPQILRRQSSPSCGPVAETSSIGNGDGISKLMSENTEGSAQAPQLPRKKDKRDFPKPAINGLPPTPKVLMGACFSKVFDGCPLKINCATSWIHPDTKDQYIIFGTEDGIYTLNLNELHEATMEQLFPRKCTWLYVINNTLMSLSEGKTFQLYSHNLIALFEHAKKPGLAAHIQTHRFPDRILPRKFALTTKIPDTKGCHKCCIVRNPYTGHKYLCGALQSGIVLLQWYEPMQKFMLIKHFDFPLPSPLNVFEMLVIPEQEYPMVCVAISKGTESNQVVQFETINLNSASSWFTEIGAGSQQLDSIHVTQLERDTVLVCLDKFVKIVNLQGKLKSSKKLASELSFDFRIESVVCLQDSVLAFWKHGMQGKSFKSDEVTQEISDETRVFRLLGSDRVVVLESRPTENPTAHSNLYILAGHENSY
Description: as §1

[3] = target: 363 human kinases (including Aurora A/B/C) (Homo sapiens, UniProt Q52WX2); conditions: SBK1; for remaining activity at 0.1 µM: 100 nM; for remaining activity at 0.1 µM / remaining activity at 0.5 µM: read-out: % Enzyme Activity (relative to DMSO controls)
Sequence of 363 human kinases (including Aurora A/B/C) (Homo sapiens, UniProt Q52WX2) (Q52WX2 whole entry): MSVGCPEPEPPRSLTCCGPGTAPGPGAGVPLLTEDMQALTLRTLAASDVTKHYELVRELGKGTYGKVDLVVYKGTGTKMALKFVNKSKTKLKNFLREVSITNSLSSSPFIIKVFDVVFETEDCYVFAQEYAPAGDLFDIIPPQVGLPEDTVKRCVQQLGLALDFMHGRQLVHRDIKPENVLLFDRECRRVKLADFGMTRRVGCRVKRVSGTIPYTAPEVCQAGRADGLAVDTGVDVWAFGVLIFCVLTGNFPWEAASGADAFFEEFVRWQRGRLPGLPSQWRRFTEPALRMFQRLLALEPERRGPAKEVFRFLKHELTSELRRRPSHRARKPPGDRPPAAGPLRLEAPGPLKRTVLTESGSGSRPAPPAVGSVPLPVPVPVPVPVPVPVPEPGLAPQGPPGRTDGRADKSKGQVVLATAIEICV
Description: as §1

[4] = target: T2, 363 human kinases (including Aurora A/B/C) (Homo sapiens, UniProt Q9UHD2); conditions: TBK1; for remaining activity at 0.1 µM: 100 nM; for remaining activity at 0.1 µM / remaining activity at 0.5 µM: read-out: % Enzyme Activity (relative to DMSO controls)
T2 sequence (Q9UHD2 1-729): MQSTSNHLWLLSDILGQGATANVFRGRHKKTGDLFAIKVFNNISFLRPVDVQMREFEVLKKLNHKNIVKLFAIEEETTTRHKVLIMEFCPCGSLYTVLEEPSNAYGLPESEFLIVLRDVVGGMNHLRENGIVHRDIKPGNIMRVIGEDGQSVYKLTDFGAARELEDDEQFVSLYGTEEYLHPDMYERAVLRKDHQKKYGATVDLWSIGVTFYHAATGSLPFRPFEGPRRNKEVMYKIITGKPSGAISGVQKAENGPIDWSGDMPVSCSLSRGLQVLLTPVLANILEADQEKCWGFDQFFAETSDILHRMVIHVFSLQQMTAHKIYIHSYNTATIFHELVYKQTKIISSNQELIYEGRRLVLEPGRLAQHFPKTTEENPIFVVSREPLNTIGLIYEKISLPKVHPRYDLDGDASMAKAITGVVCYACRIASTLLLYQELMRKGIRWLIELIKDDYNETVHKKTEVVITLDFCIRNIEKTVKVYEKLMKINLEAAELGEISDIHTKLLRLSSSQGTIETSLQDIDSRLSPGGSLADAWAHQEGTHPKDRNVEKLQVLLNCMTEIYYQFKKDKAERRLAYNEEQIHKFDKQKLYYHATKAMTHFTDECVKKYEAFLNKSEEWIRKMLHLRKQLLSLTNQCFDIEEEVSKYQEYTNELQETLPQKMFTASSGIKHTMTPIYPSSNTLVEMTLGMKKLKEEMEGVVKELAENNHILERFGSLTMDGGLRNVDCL
Description: as §1

[5] = target: 363 human kinases (including Aurora A/B/C) (Homo sapiens, UniProt Q9UQM7); conditions: CAMK2a, [ATP] 100 µM; for remaining activity at 0.1 µM: 100 nM; for remaining activity at 0.1 µM / remaining activity at 0.5 µM: read-out: % Enzyme Activity (relative to DMSO controls)
Sequence of 363 human kinases (including Aurora A/B/C) (Homo sapiens, UniProt Q9UQM7) (Q9UQM7 whole entry): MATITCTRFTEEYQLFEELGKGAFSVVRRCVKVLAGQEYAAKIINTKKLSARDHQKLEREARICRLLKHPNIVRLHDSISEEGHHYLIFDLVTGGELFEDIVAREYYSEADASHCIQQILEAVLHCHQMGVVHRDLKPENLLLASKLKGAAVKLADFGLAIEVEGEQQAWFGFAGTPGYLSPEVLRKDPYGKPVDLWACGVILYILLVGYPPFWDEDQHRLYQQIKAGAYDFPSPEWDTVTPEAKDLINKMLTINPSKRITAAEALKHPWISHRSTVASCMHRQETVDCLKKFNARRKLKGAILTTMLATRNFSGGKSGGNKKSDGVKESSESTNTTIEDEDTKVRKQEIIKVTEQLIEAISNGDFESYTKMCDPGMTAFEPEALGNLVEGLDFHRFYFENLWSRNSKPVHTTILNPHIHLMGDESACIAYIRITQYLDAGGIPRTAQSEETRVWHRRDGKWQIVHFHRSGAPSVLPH
Description: as §1

Row | Structure (SMILES) | remaining activity at 0.1 µM [1] [%] | remaining activity at 0.5 µM ([1]; 500 nM) [%] | remaining activity at 0.1 µM [2] [%] | remaining activity at 0.5 µM ([2]; 500 nM) [%] | remaining activity at 0.1 µM [3] [%] | remaining activity at 0.5 µM ([3]; 500 nM) [%] | remaining activity at 0.1 µM [4] [%] | remaining activity at 0.5 µM ([4]; 500 nM) [%] | remaining activity at 0.1 µM [5] [%] | remaining activity at 0.5 µM ([5]; 500 nM) [%] | % Enzyme Activity (relative to DMSO controls) ([1]; 500 nM) [%] | % Enzyme Activity (relative to DMSO controls) ([2]; 500 nM) [%] | % Enzyme Activity (relative to DMSO controls) ([3]; 500 nM) [%] | % Enzyme Activity (relative to DMSO controls) ([4]; 500 nM) [%] | % Enzyme Activity (relative to DMSO controls) ([5]; 500 nM) [%]
1 | O=C(O)[C@]1(Cc2cccc(Nc3nccs3)n2)CC[C@@H](Oc2cccc(Cl)c2F)CC1 [MK-5108] | 16.1 | 8.95 | 96.2 | 92.4 | 102 | 96.3 | 108 | 88.6 | 95.4 | 101 |  |  |  |  | 
2 | O=C(c1cccc(Cl)c1F)N1CCN(Cc2cccc(Nc3nccs3)n2)CC1 [MK-8745] |  | 91.4 |  | 94 |  | 96.4 |  | 105 |  | 104 | 88.95 | 93.71 | 95.86 | 102.60 | 101.40
3 | CCn1cc(-c2ccnc3[nH]c(-c4cccc(CN(C)C)c4)cc23)c(-c2ccc(NC(=O)N(C)C)cc2)n1 [GSK1070916] | 99.2 |  | 84 |  | 101 |  | 93.7 |  | 102 |  |  |  |  |  | 
